# Laboratory results taken from paper PMC11432771, “Sphaerococcenol A Derivatives: Design, Synthesis, and Cytotoxicity” (Marine Drugs, 2024).
# Tests used:
# A549 cells = assay: MTT cytotoxicity assay, A549 cells; assay type: cell-based; settings: for IC50: MTT assay, 24 h, 1–100 µM, 95% confidence interval in parentheses; for SI (A549): SI = IC50 of FL83B/IC50 on A549
# Text: (§1) Three malignant cell lines (between passages 10 and 25) obtained from the DMSZ-German Collection of Microorganisms and Cell Cultures GmbH biobank were used: A549 (lung carcinoma), DU-145 (prostate carcinoma), and MCF-7 (breast adenocarcinoma). MCF-7 (ACC-115) and DU-145 (ACC-261) cells were maintained in RPMI 1640 medium (Merck, Darmstadt, Germany) supplemented with 10% FBS (fetal bovine serum, Biowest, Riverside, MO, USA) and 1% antimycotic and antibiotic solution (Biowest, Nuaillé, France). A549 (ACC-107) cells were maintained in DMEM:F12 medium (Merck, Darmstadt, Germany) and also supplemented with 10% FBS (Biowest, Riverside, MO, USA) and a 1% solution of antimycotic and antibiotic (Biowest, Nuaillé, France). FL83B hepatocytes (FL83B; ATCC: CLR-2390) were used as the non-malignant cell line. The cells were cultured in F-12K medium supplemented with FBS 10% (Biowest, Riverside, MO, USA) and 1% solution of antimycotic and antibiotic (Biowest, Nuaillé, France).
# (§2) The effects of sphaerococcenol A and its analogues (1–6) on the viability of malignant cell lines were studied through three distinct assays, 3-(4,5-dimethylthiazol-2-yl)-2,5-diphenyltetrazolium bromide (MTT), lactate dehydrogenase (LDH) activity, and calcein-AM, targeting different cellular biomarkers. Untreated cells with DMSO (<0.2%) were used as control, and saponin (0.4 mg/mL) (Sigma, Darmstadt, Germany) was used as the positive control for cell death.
# (§3) The cells were incubated with compounds at different concentrations (1–100 µM) for 24 h. After the 24 h was over, cells were washed with PBS buffer (pH = 7.4) and incubated for 60 min with the MTT solution (1.2 mM) previously prepared in a fresh medium. The MTT solution was then removed, and 100 µL of dimethyl sulfoxide (DMSO) was added to dissolve the formazan crystals. The results were expressed as the half-maximal inhibitory concentration (IC50) after reading the absorbance at 570 nm using a microplate reader (Synergy H1, BioTek Instruments, USA). The selectivity index (SI) was calculated as the ratio of the IC50 value for a normal cell line to the IC50 value for the corresponding tumor cell line (SI = IC50 of non-malignant cell line/IC50 of malignant cell line), where an SI ≥ 2 of a compound represents a selective toxicity towards malignant cells, while an SI value < 2 is considered generally toxic.
# (§4) The data were obtained from at least three independent experiments (n = 3) carried out in triplicate and presented as mean ± standard error of the mean (SEM). The data were checked for normality and homoscedasticity. […] A one-way analysis of variance (ANOVA) with Dunnett′s multiple comparison of group means was employed to determine significant differences to the control treatment and/or a two-way ANOVA with Bonferroni’s test. All other post hoc analyses were conducted using Tukey’s test. The differences were considered significant at a level of 0.05 (p < 0.05). The inhibitory concentrations (IC50) were determined by means of the equation y = 100/(1 + 10(x − logIC50)). All data were analyzed using the software SPSS v28.0.0.0 (SPSS Inc., Chicago, IL, USA) and GraphPad v8.0.2 (GraphPad Software, Inc., La Jolla, CA, USA).
# DU-145 cells = assay: MTT cytotoxicity assay, DU-145 cells; assay type: cell-based; settings: for SI (DU-145): SI = IC50 of FL83B/IC50 on DU-145; for IC50: Homo sapiens, DU-145, MTT assay, 24 h, 1–100 µM, 95% confidence interval in parentheses
# Text: as §1, §2, §3, §4
# MCF-7 cells [1] = assay: MTT cytotoxicity assay, MCF-7 cells; assay type: cell-based; settings: for IC50: MTT assay, 24 h, 1–100 µM, 95% confidence interval in parentheses; for SI (MCF-7): SI = IC50 of FL83B/IC50 on MCF-7
# Text: as §1, §2, §3, §4
# FL83B hepatocytes = assay: MTT cytotoxicity assay, non-malignant FL83B hepatocytes; assay type: cell-based; settings: non-malignant cell line, 24 h, 1–100 µM, 95% confidence interval in parentheses
# Text: Three malignant cell lines (between passages 10 and 25) obtained from the DMSZ-German Collection of Microorganisms and Cell Cultures GmbH biobank were used: A549 (lung carcinoma), DU-145 (prostate carcinoma), and MCF-7 (breast adenocarcinoma). MCF-7 (ACC-115) and DU-145 (ACC-261) cells were maintained in RPMI 1640 medium (Merck, Darmstadt, Germany) supplemented with 10% FBS (fetal bovine serum, Biowest, Riverside, MO, USA) and 1% antimycotic and antibiotic solution (Biowest, Nuaillé, France). A549 (ACC-107) cells were maintained in DMEM:F12 medium (Merck, Darmstadt, Germany) and also supplemented with 10% FBS (Biowest, Riverside, MO, USA) and a 1% solution of antimycotic and antibiotic (Biowest, Nuaillé, France). FL83B hepatocytes (FL83B; ATCC: CLR-2390) were used as the non-malignant cell line. The cells were cultured in F-12K medium supplemented with FBS 10% (Biowest, Riverside, MO, USA) and 1% solution of antimycotic and antibiotic (Biowest, Nuaillé, France). […]
# as §3, with “After the 24 h was over, cells were washed with PBS buffer (pH = 7.4) and incubated for 60 min with the MTT solution (1.2 mM) previously prepared in a fresh medium. The MTT solution was then removed, and 100 µL of dimethyl sulfoxide (DMSO) was added to dissolve the formazan crystals.” left out
# The data were obtained from at least three independent experiments (n = 3) carried out in triplicate and presented as mean ± standard error of the mean (SEM). […] The inhibitory concentrations (IC50) were determined by means of the equation y = 100/(1 + 10(x − logIC50)). All data were analyzed using the software SPSS v28.0.0.0 (SPSS Inc., Chicago, IL, USA) and GraphPad v8.0.2 (GraphPad Software, Inc., La Jolla, CA, USA).
# [2] = tested on: A549, DU-145, and MCF-7 malignant cells; assay: MTT cytotoxicity assay, stated across the three malignant cell lines; assay type: cell-based; settings: SI = IC50 of FL83B/IC50 of malignant cell line; over A549, DU-145, MCF-7
# Text: Three malignant cell lines (between passages 10 and 25) obtained from the DMSZ-German Collection of Microorganisms and Cell Cultures GmbH biobank were used: A549 (lung carcinoma), DU-145 (prostate carcinoma), and MCF-7 (breast adenocarcinoma). MCF-7 (ACC-115) and DU-145 (ACC-261) cells were maintained in RPMI 1640 medium (Merck, Darmstadt, Germany) supplemented with 10% FBS (fetal bovine serum, Biowest, Riverside, MO, USA) and 1% antimycotic and antibiotic solution (Biowest, Nuaillé, France). […]
# as §3, with “After the 24 h was over, cells were washed with PBS buffer (pH = 7.4) and incubated for 60 min with the MTT solution (1.2 mM) previously prepared in a fresh medium. The MTT solution was then removed, and 100 µL of dimethyl sulfoxide (DMSO) was added to dissolve the formazan crystals.” left out
# The data were obtained from at least three independent experiments (n = 3) carried out in triplicate and presented as mean ± standard error of the mean (SEM). […] The inhibitory concentrations (IC50) were determined by means of the equation y = 100/(1 + 10(x − logIC50)). […]
# U373 cells = tested on: U373 cells; set-up: method as in PMID 20045651; settings: inhibiting the cell entry into the mitosis phase; cited from earlier work
# MCF-7 cells [3] = tested on: MCF-7 cells; set-up: method as in PMID 35378501; settings: previous studies; cited from earlier work
SMILES,"IC50 (A549 cells; Homo sapiens, A549, 24 h) [µM]",SI (A549) (A549 cells),SI (DU-145) (DU-145 cells),IC50 (MCF-7 cells [1]) [µM],SI (MCF-7) (MCF-7 cells [1]),IC50 (A549 cells) [µM],IC50 (FL83B hepatocytes) [µM],IC50 (DU-145 cells) [µM],selectivity index across the malignant cell lines [2],"IC50 (MCF-7 cells [1]; Homo sapiens, MCF7, 24 h) [µM]",effect on human apoptosis-resistant U373 cells (U373 cells),events accompanying decrease in MCF-7 cell viability (MCF-7 cells [3])
"CCCSC1CC(=O)[C@@](C)(O)[C@H]2[C@@H]3C=CC[C@@H](C(C)C)[C@@]3(CBr)CC[C@]12C (single isomer, unassigned) [Compound 2]",33.8,1.4,1.9,70.3,0.7,,,,,,,
"CCCSC1CC(=O)[C@@](C)(O)[C@H]2[C@@H]3C=CC[C@@H](C(C)C)[C@@]3(CBr)CC[C@]12C (single isomer, unassigned) [Compound 3]",,2.5,2.8,14.3,4.0,22.5,56.7,,,,,
"CC(C)[C@@H]1CC=C[C@H]2[C@@H]3[C@](C)(O)C(=O)CC(SCc4ccccc4)[C@@]3(C)CC[C@]12CBr (stereo partly drawn) [Compound 4, (4S,4aS,4bS,8S,8aS,10aS)-1-(Benzylthio)-8a-(bromomethyl)-4-hydroxy-8-isopropyl-4,10a-dimethyl-1,4,4a,4b,7,8,8a,9,10,10a-decahydrophenanthren-3(2H)-one]",35.5,1.1,0.6,,1.3,,40.3,70.1,0.6–1.3,,,
CC(C)C1CC=CC2C3C(C)(CCC(O)C3(C)O)CCC21CBr (stereo not drawn) [Compound 5],,3.7,4.4,,2.6,,,,,,,
CC(C)C1CC=CC2C3C(C)(CCC(O)C3(C)O)CCC21CBr (stereo not drawn) [Compound 6],,1.9,3.1,,2.9,,,,,,,
CC(C)[C@@H]1CC=C[C@H]2[C@H]3[C@@](C)(C=CC(=O)[C@@]3(C)O)CC[C@]12CBr [Sphaerococcenol A],15,2.5,10.0,,5.7,,37.4,3.75,,6.53,cytostatic effect,"production of hydrogen peroxide, changes in mitochondrial membrane potential, the stimulation of Caspase-9 activity, and nuclear morphology alterations"
